Test results from patent publication US20060069132A1, “Azolecarboxamide herbicides” (priority 2004, published 2006).

Key:
johnsongrass = assay: Test C pre-/postemergence herbicide test; format: in vivo, Sorghum halepense; conditions: for Johnsongrass plant response rating: Preemergence, 500 g ai/ha, scale 0 to 100, 0 no effect, 100 complete control
In short: (§1)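 Visual ratings on a 0–100 scale (100 = complete control) made versus untreated controls after 12 to 14 greenhouse days. Test chemicals, formulated in surfactant-containing non-phytotoxic solvent, applied preemergence to planted seeds or postemergence to 1- to 4-leaf plants (2 to 18 cm).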

soybean = assay: Test C pre-/postemergence herbicide test; format: in vivo, Glycine max; conditions: for Soybean plant response rating: Preemergence, 500 g ai/ha, scale 0 to 100, 0 no effect, 100 complete control
In short: as §1

velvetleaf = assay: Test C pre-/postemergence herbicide test; format: in vivo, Abutilon theophrasti; conditions: for Velvetleaf plant response rating: Preemergence, 500 g ai/ha, scale 0 to 100, 0 no effect, 100 complete control
In short: as §1

goosegrass = assay: Test C pre-/postemergence herbicide test; format: in vivo, Eleusine indica; conditions: for Goosegrass plant response rating: Preemergence, 500 g ai/ha, scale 0 to 100, 0 no effect, 100 complete control
In short: as §1

kochia = assay: Test C pre-/postemergence herbicide test; format: in vivo, Kochia scoparia; conditions: for Kochia plant response rating: Preemergence, 500 g ai/ha, scale 0 to 100, 0 no effect, 100 complete control
In short: as §1

Surinam grass = assay: Test C pre-/postemergence herbicide test; format: in vivo, Urochloa decumbens; conditions: for Surinam Grass plant response rating: Preemergence, 500 g ai/ha, scale 0 to 100, 0 no effect, 100 complete control
In short: as §1

pigweed = assay: Test C pre-/postemergence herbicide test; format: in vivo, Amaranthus retroflexus; conditions: for Pigweed plant response rating: Preemergence, 500 g ai/ha, scale 0 to 100, 0 no effect, 100 complete control
In short: as §1

large crabgrass = assay: Test C pre-/postemergence herbicide test; format: in vivo, Digitaria sanguinalis; conditions: for Crabgrass, Large plant response rating: Preemergence, 500 g ai/ha, scale 0 to 100, 0 no effect, 100 complete control
In short: as §1

rice = assay: Test B pre-/postemergence herbicide test; format: in vivo, Oryza sativa
In short: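 Plants compared with untreated controls 13–15 days post-treatment and given a visual 0–100 injury score. Applications: preemergence to seeds; postemergence at 1- to 4-leaf (2–18 cm); paddy species flooded, 2-leaf stage. Vehicle non-phytotoxic, surfactant included.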

[1] = 62 g ai/ha, preemergence, scale 0 to 100
[2] = 125 g ai/ha, scale 0 (no effect) to 100 (complete control), visual, 12 to 14 days, preemergence
[3] = 250 g ai/ha, scale 0-100, preemergence

CCNC(=O)c1cccc(NC(=O)c2sc(C(C)(C)C)nc2C)c1 [Compound 198]
Plant response rating, Johnsongrass (johnsongrass; [1]): 0
Plant response rating, Johnsongrass (johnsongrass; [2]): 30
Plant response rating, Johnsongrass (johnsongrass; [3]): 60
Johnsongrass plant response rating (johnsongrass): 95
Plant response rating, Soybean (soybean; [1]): 0
Plant response rating, Soybean (soybean; [2]): 0
Plant response rating, Soybean (soybean; [3]): 0
Soybean plant response rating (soybean): 25
Plant response rating, Velvetleaf (velvetleaf; [1]): 5
Plant response rating, Velvetleaf (velvetleaf; [2]): 80
Plant response rating, Velvetleaf (velvetleaf; [3]): 80
Velvetleaf plant response rating (velvetleaf): 100
Plant response rating, Goosegrass (goosegrass; [1]): 20
Plant response rating, Goosegrass (goosegrass; [2]): 80
Plant response rating, Goosegrass (goosegrass; [3]): 95
Goosegrass plant response rating (goosegrass): 100
Plant response rating, Kochia (kochia; [1]): 50
Plant response rating, Kochia (kochia; [2]): 80
Plant response rating, Kochia (kochia; [3]): 100
Kochia plant response rating (kochia): 100
Plant response rating, Surinam Grass (Surinam grass; [1]): 0
Plant response rating, Surinam Grass (Surinam grass; [2]): 10
Plant response rating, Surinam Grass (Surinam grass; [3]): 30
Surinam Grass plant response rating (Surinam grass): 100
Plant response rating, Pigweed (pigweed; [1]): 100
Plant response rating, Pigweed (pigweed; [2]): 100
Plant response rating, Pigweed (pigweed; [3]): 100
Pigweed plant response rating (pigweed): 100
Plant response rating, Crabgrass, Large (large crabgrass; [1]): 80
Plant response rating, Crabgrass, Large (large crabgrass; [2]): 85
Plant response rating, Crabgrass, Large (large crabgrass; [3]): 95
Crabgrass, Large plant response rating (large crabgrass): 95
Rice plant response rating (0 to 100 scale) (rice; 125 g ai/ha, 0 = no effect, 100 = complete control, preemergence): 30
Plant response rating, Rice (rice; 500 g ai/ha, visual rating 0-100, 0 no effect, 100 complete control, preemergence): 80

CCc1nn(C(C)(C)C)cc1C(=O)Nc1cccc(C(=O)N(CC)CC)c1 [Compound 182, N-[3-[(diethylamino)carbonyl]phenyl]-1-(1,1-dimethylethyl)-3-ethyl-1H-pyrazole-4-carboxamide]
Johnsongrass plant response rating (johnsongrass): 75
pest or weed control at 62 g/ha (johnsongrass; Sorghum halepense, pre-emergence, 62 g ai/ha, preemergence, scale 0 to 100, read-out: Plant response rating, Johnsongrass): 0%
pest or weed control at 125 g/ha (johnsongrass; Sorghum halepense, pre-emergence, 125 g ai/ha, scale 0 (no effect) to 100 (complete control), visual, 12 to 14 days, read-out: Plant response rating, Johnsongrass): 35%
plant injury at 62 g/ha (soybean; Glycine max, pre-emergence, 62 g ai/ha, preemergence, scale 0 to 100, read-out: Plant response rating, Soybean): 0%
plant injury at 125 g/ha (soybean; Glycine max, pre-emergence, 125 g ai/ha, scale 0 (no effect) to 100 (complete control), visual, 12 to 14 days, read-out: Plant response rating, Soybean): 0%
Soybean plant response rating (soybean): 15
pest or weed control at 62 g/ha (velvetleaf; Abutilon theophrasti, pre-emergence, 62 g ai/ha, preemergence, scale 0 to 100, read-out: Plant response rating, Velvetleaf): 0%
pest or weed control at 125 g/ha (velvetleaf; Abutilon theophrasti, pre-emergence, 125 g ai/ha, scale 0 (no effect) to 100 (complete control), visual, 12 to 14 days, read-out: Plant response rating, Velvetleaf): 0%
Velvetleaf plant response rating (velvetleaf): 100
pest or weed control at 62 g/ha (goosegrass; Eleusine indica, pre-emergence, 312 h, 62 g ai/ha, preemergence, scale 0 to 100, read-out: Plant response rating, Goosegrass): 0%
pest or weed control at 125 g/ha (goosegrass; Eleusine indica, pre-emergence, 312 h, 125 g ai/ha, scale 0 (no effect) to 100 (complete control), visual, 12 to 14 days, read-out: Plant response rating, Goosegrass): 25%
Goosegrass plant response rating (goosegrass): 80
pest or weed control at 62 g/ha (kochia; Bassia scoparia, pre-emergence, 62 g ai/ha, preemergence, scale 0 to 100, read-out: Plant response rating, Kochia): 0%
pest or weed control at 125 g/ha (kochia; Bassia scoparia, pre-emergence, 125 g ai/ha, scale 0 (no effect) to 100 (complete control), visual, 12 to 14 days, read-out: Plant response rating, Kochia): 60%
Kochia plant response rating (kochia): 90
Surinam Grass plant response rating (Surinam grass): 85
pest or weed control at 62 g/ha (Surinam grass; Urochloa decumbens, pre-emergence, 312 h, 62 g ai/ha, preemergence, scale 0 to 100, read-out: Plant response rating, Surinam Grass): 0%
pest or weed control at 125 g/ha (Surinam grass; Urochloa decumbens, pre-emergence, 312 h, 125 g ai/ha, scale 0 (no effect) to 100 (complete control), visual, 12 to 14 days, read-out: Plant response rating, Surinam Grass): 20%
pest or weed control at 62 g/ha (pigweed; Amaranthus retroflexus, pre-emergence, 62 g ai/ha, preemergence, scale 0 to 100, read-out: Plant response rating, Pigweed): 95%
pest or weed control at 125 g/ha (pigweed; Amaranthus retroflexus, pre-emergence, 125 g ai/ha, scale 0 (no effect) to 100 (complete control), visual, 12 to 14 days, read-out: Plant response rating, Pigweed): 95%
Pigweed plant response rating (pigweed): 95
pest or weed control at 62 g/ha (large crabgrass; Digitaria sanguinalis, pre-emergence, 312 h, 62 g ai/ha, preemergence, scale 0 to 100, read-out: Plant response rating, Crabgrass, Large): 0%
pest or weed control at 125 g/ha (large crabgrass; Digitaria sanguinalis, pre-emergence, 312 h, 125 g ai/ha, scale 0 (no effect) to 100 (complete control), visual, 12 to 14 days, read-out: Plant response rating, Crabgrass, Large): 25%
pest or weed control at 250 g/ha (large crabgrass; Digitaria sanguinalis, pre-emergence, 312 h, 250 g ai/ha, scale 0 to 100 (0 no effect, 100 complete control), visual, 12 to 14 days, read-out: Plant response rating, Crabgrass, Large): 75%
Crabgrass, Large plant response rating (large crabgrass): 100
plant injury at 125 g/ha (rice; Oryza sativa, pre-emergence, 336 h, 125 g ai/ha, 0 = no effect, 100 = complete control, read-out: Rice plant response rating (0 to 100 scale)): 0%
plant injury at 500 g/ha (rice; Oryza sativa, pre-emergence, 336 h, 500 g ai/ha, visual rating 0-100, 0 no effect, 100 complete control, read-out: Plant response rating, Rice): 50%
